{"source": "paper PMC6154605", "about": "“Multi-Anti-Parasitic Activity of Arylidene Ketones and Thiazolidene Hydrazines against Trypanosoma cruzi and Leishmania spp” (Molecules : A Journal of Synthetic Chemistry and Natural …, 2017)", "key": {"[1]": {"test_system": "L. infantum promastigotes", "assay": "Leishmanicidal activity on promastigotes, resazurin", "assay_type": "cell-based, Leishmania infantum", "settings": "Leishmania infantum, 48 h; read-out: IC50 ± SD Promastigotes L. infantum", "outline": "(§1)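 Promastigotes (2 × 10^6/well) in Schneider's medium with 20% FBS treated with compound dilutions for 48 h at 26 °C. Resazurin reduction read at 570 and 600 nm; IC50 from duplicate experiments, triplicate concentrations.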"}, "[2]": {"target": "T1, LmTIM (triosephosphate isomerase from Leishmania mexicana) (Leishmania mexicana, UniProt P48499)", "T1 construct": "made in house; host or cells: Escherichia coli", "T1 sequence (P48499 whole entry)": "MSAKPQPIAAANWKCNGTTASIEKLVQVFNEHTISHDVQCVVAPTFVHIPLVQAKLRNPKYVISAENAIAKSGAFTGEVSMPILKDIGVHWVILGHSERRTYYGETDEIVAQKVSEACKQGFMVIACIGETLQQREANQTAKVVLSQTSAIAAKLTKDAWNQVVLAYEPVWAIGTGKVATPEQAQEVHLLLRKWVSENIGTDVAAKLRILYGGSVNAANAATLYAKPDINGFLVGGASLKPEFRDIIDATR", "assay": "Inhibition of triosephosphate isomerase", "assay_type": "biochemical", "settings": "read-out: Percentage of Inhibition LmTIM", "procedure": "Compounds were dissolved in DMSO. […] The experiments were performed in triplicate."}, "[3]": {"test_system": "T. cruzi epimastigotes, Tulahuen 2 strain (genotype TcVI)", "settings": "cited from earlier work"}, "[4]": {"test_system": "L. braziliensis promastigotes", "assay": "Leishmanicidal activity on promastigotes, resazurin", "assay_type": "cell-based, Leishmania braziliensis", "outline": "as §1"}, "NCTC929 fibroblasts": {"test_system": "NCTC929 fibroblasts", "assay": "Nonspecific cytotoxicity on fibroblasts, resazurin", "assay_type": "cell-based", "settings": "NCTC-929, 24 h; read-out: IC50 ± SD Fibroblast NCTC929", "outline": "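NCTC929 murine fibroblasts seeded 3.00 × 10^4 cells/well, grown overnight, then exposed to compounds for 24 h at 37 °C, 5% CO2. Viability read by resazurin reduction (3 h), dual-wavelength absorbance at 490 and 595 nm with background subtracted. Each concentration tested three times.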"}, "zebrafish embryos": {"test_system": "zebrafish embryos", "assay": "Zebrafish embryo toxicity test (LD50)"}, "[5]": {"assay": "Drug bioconcentration in zebrafish embryos, UV-visible spectroscopy", "assay_type": "in vivo", "settings": "whole embryo extract, 25 µM, incubation 25 µM, volume of measurement 100 µL, read-out: conc. in zebrafish embryos", "procedure": "To get an approximation of the distribution and concentration of GAT1033 (the lipophilic compound) in the embryos, in the presence and absence of the chorion, we conducted a first analysis visualizing the embryos by laser scanning confocal microscopy. […] We then quantified the internal concentration of GAT1033 by UV-visible spectroscopy (Figure 9). To do this, we incubated embryos, with and without chorion, with a fixed dose of the compound for different extensions of time. After this, we performed a standard chemical extraction and quantified using spectrophotometry and checking the integrity of the molecules by thin layer chromatography.\nFollowing the same conditions as those of the embryo toxicity test, five embryos were incubated per well in 6-well plates with 5 mL of 25 μM GAT1033. Embryos were incubated with and without chorion, starting at 6 hpf. The incubation medium containing the compound was exchanged daily. Every 24 h, 30 embryos having the same conditions were taken to extract the compound for quantitation. The embryos were washed three times with aquarium water and then centrifuged at low speed to pull out the total remaining solvent. The embryos were then resuspended in 1 mL of aquarium water and lysed by sonication (Omni Sonic Ruptor Omni Sonic Ruptor 400 Ultrasonic Homogenizer) on an ice bath with 4-times half-intensity-15-second pulses, resting 5 seconds. The extract was incubated with 1 mL of methanol/chloroform (2:1) for 5 min at 25 °C, followed by five chloroform extractions. The organic phase was dried over anhydrous sodium sulfate and evaporated in vacuo. The crude extract was dissolved in 100 µL acetonitrile (Merck, HPLC grade) for spectrophotometric measurements (Spectrophotometer double beam UV-Vis model Cary 60 Agilent Cary WinUV). The calibration curve and all of the experiments were performed with GAT1033 under the same conditions. For this, we used the Beer–Lambert–Bouguer Law (BLB law). Optical data for GAT1033 are: ε = (14.7 ± 0.5) cm^−1mM^−1, λmax = 379 nm, emission 530 nm."}}, "note": "Read-outs that look alike come from different tables or passages of the source. Marks after values point to notes of the source that are not given here."}
{"smiles": "C=CCn1c(-c2ccc(Cl)cc2)cs\\c1=N/N=C/C=C/c1ccco1", "note": "[GAT1033]", "values": [{"measurement": "IC50", "setting": "[1]", "result": "2 ± 0.2", "unit": "µM"}, {"measurement": "inhibition at 100 µM", "setting": "[2]", "result": 0, "unit": "%"}, {"measurement": "SI J774.1/ T. cruzi", "setting": "[3]; ratio IC50 mammalian cell / IC50 parasite (epimastigotes)", "result": "37 ^a"}, {"measurement": "IC50", "setting": "[3]; read-out: IC50 ± SD Epimastigotes T. cruzi", "result": "1.6 ± 0.5", "unit": "µM"}, {"measurement": "IC50", "setting": "[4]; Leishmania braziliensis, 48 h, read-out: IC50 ± SD Promastigotes L. braziliensis", "result": "7 ± 1", "unit": "µM"}, {"measurement": "SI NCTC/ L. braziliensis", "setting": "[4]; ratio IC50 mammalian cell / IC50 parasite (promastigotes)", "result": 58}, {"measurement": "IC50", "setting": "NCTC929 fibroblasts", "result": "405 ± 10", "unit": "µM"}, {"measurement": "LD50 without chorion", "setting": "zebrafish embryos; dechorionated zebrafish embryos, 72 h incubation", "result": "27 ± 1", "unit": "µM"}, {"measurement": "LD50 with chorion", "setting": "zebrafish embryos; zebrafish embryos with chorion", "result": "> 100", "unit": "µM"}, {"measurement": "concentration at 24 h", "setting": "[5]; with chorion", "result": 0.3, "unit": "µM"}, {"measurement": "concentration at 48 h", "setting": "[5]; with chorion", "result": 4.8, "unit": "µM"}, {"measurement": "concentration at 72 h", "setting": "[5]; with chorion", "result": 1.8, "unit": "µM"}, {"measurement": "concentration at 24 h", "setting": "[5]; without chorion", "result": 0.4, "unit": "µM"}, {"measurement": "concentration at 48 h", "setting": "[5]; without chorion", "result": 7.3, "unit": "µM"}, {"measurement": "concentration at 72 h", "setting": "[5]; without chorion", "result": 8.1, "unit": "µM"}]}
